From US5436254A, “Carbostyril derivatives” (Otsuka Pharmaceutical Company, Ltd., priority 1989, dated 1995)

These compounds were tested against V1 receptor (Rattus norvegicus, UniProt P30560) (assay: biochemical). Conditions: not given.
Chain of V1 receptor (P30560 whole entry): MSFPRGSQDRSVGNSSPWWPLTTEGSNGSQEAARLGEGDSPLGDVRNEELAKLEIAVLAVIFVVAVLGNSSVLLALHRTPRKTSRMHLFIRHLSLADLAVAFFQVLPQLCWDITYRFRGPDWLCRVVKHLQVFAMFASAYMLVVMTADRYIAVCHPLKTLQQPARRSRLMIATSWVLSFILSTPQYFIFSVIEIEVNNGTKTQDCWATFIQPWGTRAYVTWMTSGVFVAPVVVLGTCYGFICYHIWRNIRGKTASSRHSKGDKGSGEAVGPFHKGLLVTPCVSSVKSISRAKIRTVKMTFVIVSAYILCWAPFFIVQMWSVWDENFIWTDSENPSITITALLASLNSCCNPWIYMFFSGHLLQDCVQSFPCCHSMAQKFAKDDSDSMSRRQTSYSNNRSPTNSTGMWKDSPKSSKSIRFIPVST
Type: binding
Work on `COC(=O)[C@@H]1CCCN1CCCCCOc1ccc(C(=O)N2CCC(N3C(=O)CCc4ccccc43)CC2)cc1` [Example 239, 1-{1-(4-[5-(2-(S)-Methoxycarbonyl-1-pyrrolidinyl)pentyloxy]benzoyl)-4-piperidinyl}-3,4-dihydrocarbostyril] yielded an IC50 of 150 nM.
In the case of `O=C(CN1CCN(c2ccccc2)CC1)NCCCCCOc1ccc(C(=O)N2CCC(N3C(=O)CCc4ccccc43)CC2)cc1` [Example 255, 1-{1-(4-[5-(2-(4-Phenyl-1-piperazinyl)acetylamino)pentyloxy]benzoyl)-4-piperidinyl}-3,4-dihydrocarbostyril], the IC50 is reported as 380 nM.
For `Cc1ccc(C(=O)N2CCC(N3C(=O)CCc4ccccc43)CC2)cc1C` [Example 78, 1-[1-(3,4-Dimethylbenzoyl)-4-piperidinyl]-3,4-dihydrocarbostyril], the IC50 was 400 nM.
In the case of `CCNc1cc(OC)ccc1C(=O)N1CCC(N2C(=O)CCc3ccccc32)CC1` [Example 56, 1-[1-(2-Ethylamino-4-methoxybenzoyl)-4-piperidinyl]-3,4-dihydrocarbostyril], the IC50 is reported as 330 nM.
In the case of `CCOc1ccc(C(=O)N2CCC(N3C(=O)CCc4ccccc43)CC2)c(OC)c1` [Example 52, 1-[1-(2-Methoxy-4-ethoxybenzoyl)-4-piperidinyl]-3,4-dihydrocarbostyril], the IC50 is reported as 80 nM.
Compound `NC(=O)CCCCOc1ccc(C(=O)N2CCC(N3C(=O)CCc4ccccc43)CC2)cc1` [Example 3, 1-{1-[4-(4-Carbamoylbutoxy)benzoyl]-4-piperidinyl}-3,4-dihydrocarbostyril] has an IC50 of 330 nM.
For `O=C(c1ccc(Oc2ccccc2)cc1)N1CCC(N2C(=O)CCc3ccccc32)CC1` [Example 45, 1-[1-(4-Phenyloxybenzoyl)-4-piperidinyl]-3,4-dihydrocarbostyril], the IC50 was 200 nM.
`N#CCCCOc1ccc(C(=O)N2CCC(N3C(=O)CCc4ccccc43)CC2)cc1` [Example 5, 1-{1-[4-(3-Cyanopropoxy)benzoyl]-4-piperidinyl}-3,4-dihydrocarbostyril] gave an IC50 of 490 nM.
Compound `C=CCN(C)c1ccc(C(=O)N2CCC(N3C(=O)CCc4ccccc43)CC2)cc1` [Example 90, 1-{1-[4-(N-Allyl-N-methylamino)benzoyl]-4-piperidinyl)-3,4-dihydrocarbostyril] has an IC50 of 1100 nM.
`CC(=O)N1CCN(C(=O)CCCCCOc2ccc(C(=O)N3CCC(N4C(=O)CCc5ccccc54)CC3)cc2)CC1` [Example 271, 1-{1-(4-[5-(4-Acetyl-1-piperazinylcarbonyl)pentyloxy]benzoyl)-4-piperidinyl}-3,4-dihydrocarbostyril] showed an IC50 of 42 nM.
For `O=C(CCCCCOc1ccc(C(=O)N2CCC(N3C(=O)CCc4ccccc43)CC2)cc1)NC1CCNCC1` [Example 210, 1-{1-[4-(5-(4-Piperidinyl)aminocarbonylpentyloxy)benzoyl]-4-piperidinyl}-3,4-dihydrocarbostyril], the IC50 was 23 nM.
`O=C(Nc1ccccc1)N1CCN(CCCOc2ccc(C(=O)N3CCC(N4C(=O)CCc5ccccc54)CC3)cc2)CC1` [Example 135, 1-[1-{4-[3-(4-Anilinocarbonyl-1-piperazinyl)propoxy]benzoyl}-4-piperidinyl]-3,4-dihydrocarbostyril] gave an IC50 of 200 nM.
`O=C(c1ccc(OCCCN2CCN(c3ccccc3)CC2)cc1)N1CCC(N2C(=O)CCc3ccccc32)CC1` [Example 93, 1-[1-{4-[3-(4-Phenyl-1-piperazinyl)propoxy]benzoyl)-4-piperidinyl]-3,4-dihydrocarbostyril] gave an IC50 of 640 nM.
`CN(C)CCCCc1ccc(C(=O)N2CCC(N3C(=O)CCc4ccccc43)CC2)cc1` [Example 180, 1-{1-[4-(4-Dimethylaminobutyl)benzoyl]-4-piperidinyl}-3,4-dihydrocarbostyril] showed an IC50 of 400 nM.
`NC(=O)OCCCCCOc1ccc(C(=O)N2CCC(N3C(=O)CCc4ccccc43)CC2)cc1` [Example 129, 1-{1-[4-(5-Carbamoyloxypentyloxy)benzoyl]-4-piperidinyl}-3,4-dihydrocarbostyril] was tested, and the IC50 was 180 nM.
For `O=C(c1ccc(OCCCCCCN2CCCCC2)cc1)N1CCC(N2C(=O)CCc3ccccc32)CC1` [Example 243, 1-{1-(4-[6-(1-Piperidinyl)hexyloxy]benzoyl)-4-piperidinyl}-3,4-dihydrocarbostyril], the IC50 was 39 nM.
`O=C(c1ccc(N2CCCC2)cc1)N1CCC(N2C(=O)CCc3ccccc32)CC1` [Example 91, 1-{1-[4-(1-Pyrrolidinyl)benzoyl]-4-piperidinyl}-3,4-dihydrocarbostyril] gave an IC50 of 720 nM.
`CCOC(=O)CNC(=O)CCCOc1ccc(C(=O)N2CCC(N3C(=O)CCc4ccccc43)CC2)cc1` [Example 8, 1-{1-[4-(3-Ethoxycarbonylmethylaminocarbonylpropoxy)benzoyl]-4-piperidinyl}-3,4-dihydrocarbostyril] gave an IC50 of 300 nM.
`C=CC[N+](C)([O-])CCCCCOc1ccc(C(=O)N2CCC(N3C(=O)CCc4ccccc43)CC2)cc1` (stereo not drawn) [Example 246, N-{5-[4-(4-(3,4-Dihydrocarbostyril-1-yl)-1-piperidinylcarbonyl)phenoxy]pentyl}, N-methyl, N-allylamine oxide] showed an IC50 of 290 nM.
In the case of `CCCC(NC(C)=O)C(=O)NCCCOc1ccc(C(=O)N2CCC(N3C(=O)CCc4ccccc43)CC2)cc1` (stereo not drawn) [Example 182, 1-{1-[4-(3-[2-(Acetylamino)valerylamino]propoxy)benzoyl]-4-piperidinyl}-3,4-dihydrocarbostyril], the IC50 is reported as 120 nM.
`O=C(c1ccc(OCCCCC(O)CN2CCN(Cc3ccccc3)CC2)cc1)N1CCC(N2C(=O)CCc3ccccc32)CC1` (stereo not drawn) [Example 172, 1-(1-[4-(5-Hydroxy-6-(4-benzyl-1-piperazinyl)hexyloxy]benzoyl]-4-piperidinyl)-3,4-dihydrocarbostyril.dioxalate] was tested, and the IC50 was 43 nM.
With `CCN(CC)CC(O)COCCCOc1ccc(C(=O)N2CCC(N3C(=O)CCc4ccccc43)CC2)cc1` (stereo not drawn) [Example 192, 1-{1-[4-(3-(2-Hydroxy-3-diethylaminopropoxy)propoxy)benzoyl]-4-piperidinyl}-3,4-dihydrocarbostyril] the IC50 was 61 nM.
Compound `CN(C)CCNC(=O)CCCCCOc1ccc(C(=O)N2CCC(N3C(=O)CCc4ccccc43)CC2)cc1` [Example 199, 1-[1-[4-(5-(2-Dimethylaminoethyl)aminocarbonylpentyloxy)benzoyl]-4-piperidinyl}-3,4-dihydrocarbostyril] has an IC50 of 55 nM.
`O=C(OCCCOc1ccc(C(=O)N2CCC(N3C(=O)CCc4ccccc43)CC2)cc1)c1ccccc1` [Example 94, 1-{1-[4-(3-Benzoyloxypropoxy)benzoyl]-4-piperidinyl}-3,4-dihydrocarbostyril] was tested, and the IC50 was 630 nM.
With `CC(=O)N[C@@H](CCC(N)=O)C(=O)NCCCOc1ccc(C(=O)N2CCC(N3C(=O)CCc4ccccc43)CC2)cc1` [Example 195, 1-(1-[4-(3-(α-N-Acetyl-(L)-glutaminyl)aminopropoxy)benzoyl]-4-piperidinyl}-3,4-dihydrocarbostyril] the IC50 was 190 nM.
In the case of `O=C(c1ccc(OCCCCC(O)CN2CCC(Cc3ccccc3)CC2)cc1)N1CCC(N2C(=O)CCc3ccccc32)CC1` (stereo not drawn) [Example 304, 1-{1-(4-[5-Hydroxy-6-(4-benzyl-1-piperidinyl)hexyloxy]benzoyl]-piperidinyl}-3,4-dihydrocarbostyril], the IC50 is reported as 37 nM.
Compound `CC[N+](C)(CC)CC(CCCCOc1ccc(C(=O)N2CCC(N3C(=O)CCc4ccccc43)CC2)cc1)OC` (stereo not drawn) [Example 301, 1-{1-[4-(5-Methoxy-6-diethylmethylammoniumhexyloxy)benzoyl]-4-piperidinyl}-3,4-dihydrocarbostyril.iodine] has an IC50 of 47 nM.
With `O=C(c1ccc(OCCCCC(O)CN2CCC[C@H]2CO)cc1)N1CCC(N2C(=O)CCc3ccccc32)CC1` (stereo partly drawn) [Example 220] the IC50 was 20 nM.
`O=C(c1ccc(OCCCCO)cc1)N1CCC(N2C(=O)CCc3ccccc32)CC1` [Example 36, 1-{1-[4-(4-Hydroxybutoxy)benzoyl]-4-piperidinyl}-3,4-dihydrocarbostyril] was tested, and the IC50 was 370 nM.
With `O=C(CCCCCOc1ccc(C(=O)N2CCC(N3C(=O)CCc4ccccc43)CC2)cc1)N1CCN(Cc2ccccc2)CC1` [Example 269, 1-{1-(4-[5-(4-Benzyl-1-piperazinylcarbonyl)pentyloxy]benzoyl)-4-piperidinyl}-3,4-dihydrocarbostyril] the IC50 was 160 nM.
`CCSc1ccc(C(=O)N2CCC(N3C(=O)CCc4ccccc43)CC2)cc1` [Example 74, 1-[1-(4-Ethylthiobenzoyl)-4-piperidinyl]-3,4-dihydrocarbostyril] showed an IC50 of 180 nM.
Work on `CC(=O)OCC(=O)NCCCCCOc1ccc(C(=O)N2CCC(N3C(=O)CCc4ccccc43)CC2)cc1` [Example 229, 1-{1-(4-[5-(2-Acetoxyacetylamino)pentyloxy]benzoyl)-4-piperidinyl]-3,4-dihydrocarbostyril] yielded an IC50 of 200 nM.
For `CN(C)C(=O)CCCOc1ccc(C(=O)N2CCC(N3C(=O)CCc4ccccc43)CC2)cc1` [Example 148, 1-{1-[4-(3-Dimethylaminocarbonylpropoxy)benzoyl]-4-piperidinyl}-3,4-dihydrocarbostyril], the IC50 was 360 nM.
Work on `CCOC(=O)NCCCOc1ccc(C(=O)N2CCC(N3C(=O)CCc4ccccc43)CC2)cc1` [Example 168, 1-{1-[4-(3-Ethoxycarbonylaminopropoxy)benzoyl]-4-piperidinyl}-3,4-dihydrocarbostyril] yielded an IC50 of 190 nM.
Work on `NC(=O)CCCNc1ccc(C(=O)N2CCC(N3C(=O)CCc4ccccc43)CC2)cc1` [Example 88, 1-{1-[4-(3-Carbamoylpropylamino)benzoyl]-4-piperidinyl)-3,4-dihydrocarbostyril] yielded an IC50 of 1000 nM.
`O=C(c1ccc(OCc2ccccc2)cc1)N1CCC(N2C(=O)CCc3ccccc32)CC1` [Example 97, 1-[1-(4-Benzyloxybenzoyl)-4-piperidinyl]-3,4-dihydrocarbostyril] showed an IC50 of 1100 nM.
`C=CCOc1cc(OC)ccc1C(=O)N1CCC(N2C(=O)CCc3ccccc32)CC1` [Example 62, 1-[1-(2-Allyloxy-4-methoxybenzoyl)-4-piperidinyl]-3,4-dihydrocarbostyril] was tested, and the IC50 was 150 nM.
With `CCN(C)c1cc(OC)ccc1C(=O)N1CCC(N2C(=O)CCc3ccccc32)CC1` [Example 58, 1-{1-[2-(N-Methyl-N-ethylamino)-4-methoxybenzoyl]-4-piperidinyl}-3,4-dihydrocarbostyril] the IC50 was 450 nM.

Same assay, conditions: read-out: IC50
With `CCOc1ccc(C(=O)N2CCC(n3c(=O)ccc4ccccc43)CC2)c(OC)c1` [Example 82, 1-[1-(2-Methoxy-4-ethoxybenzoyl)-4-piperidinyl]carbostyril] the IC50 was 330 nM.
